Here are results for four molecules from ChEMBL document CHEMBL1201862, “PubChem BioAssay data set” (2004).

Test systems include 786-0; A498; A549; BT-549; CCRF-CEM; DU-145; Hs-578T; MDA-MB-231; MDA-N; NCI-H23; NCI-H460; RPMI-8226; SF-268; SF-295; SK-MEL-28; SK-MEL-2; SNB-19; U-251; UO-31.
Holding throughout (test): NCI anticancer screen, dose series, 48 h

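Briefly, cells in 96-well plates were exposed to five compound concentrations for 48 h, and endpoints were estimated by linear interpolation. Abbreviation: GI50, concentration required for 50% inhibition of growth.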 Calls of active or inactive are those of the source. Rule as the data show it: active = GI50 up to about 1.1 µM and inactive = higher. A value given as a limit tells only on which side of the number the result lay.

Regarding `CC1(C)C(=O)C2(C#N)CCC1C2` (centres undefined), the GI50 with 786-0, in the experiment with A498, with A549, with BT-549, in the experiment with CCRF-CEM and with DU-145 was > 100 µM (inactive) in each case. The GI50 was > 100 µM (inactive) with Hs-578T; > 100 µM (inactive) in the experiment on MDA-MB-231; > 100 µM (inactive) with MDA-N; > 100 µM (inactive) with NCI-H23; > 100 µM (inactive) in the experiment with NCI-H460; > 76.9 µM (inactive) in the experiment with RPMI-8226. The GI50 with SF-268, in the experiment with SF-295, with SK-MEL-28, in the experiment with SK-MEL-2, in the experiment with SNB-19 and in the experiment on U-251 was > 100 µM (inactive) throughout. Also, in the experiment with UO-31, the GI50 was > 100 µM (inactive).

As for `O=[N+]([O-])/C(C(Cl)=C(Cl)Cl)=C(\Nc1cccc2cccnc12)SCc1ccccc1`, the GI50 was 21.6 µM (inactive) with 786-0; 26.7 µM (inactive) with A498; 31.3 µM (inactive) with A549; 16.9 µM (inactive) in the experiment on BT-549; 14.9 µM (inactive) in the experiment on CCRF-CEM; 21.5 µM (inactive) with DU-145. The GI50 with Hs-578T is < 0.01 µM (active); in the experiment with MDA-MB-231 it was 27.3 µM (inactive); with MDA-N, 31.1 µM (inactive); in the experiment on NCI-H23, 17 µM (inactive); in the experiment on NCI-H460 it was 21 µM (inactive); with RPMI-8226, 22.3 µM (inactive). In addition, the GI50 in the experiment on SF-268 is 17.3 µM (inactive); in the experiment with SF-295 it was 18.7 µM (inactive); in the experiment with SK-MEL-28, 19 µM (inactive); in the experiment with SK-MEL-2, 12.6 µM (inactive); in the experiment on SNB-19, 16.7 µM (inactive); in the experiment on U-251, 16.1 µM (inactive). In addition, the GI50 in the experiment on UO-31 was 18.3 µM (inactive).

For the molecule `CO[C@]12C#CC=CC#C[C@@H](O)[C@]3(CCC1)O[C@@]23c1cccc(O)c1`, the GI50 with 786-0, in the experiment with A498, in the experiment on A549, with BT-549, with DU-145 and in the experiment with Hs-578T was > 100 µM (inactive) each time. Moreover, the GI50 with MDA-MB-231, with MDA-N, with NCI-H23, in the experiment on NCI-H460, in the experiment on RPMI-8226 and in the experiment with SF-268 was > 100 µM (inactive) each time. In addition, the GI50 with SF-295 is > 100 µM (inactive); with SK-MEL-28 it was > 100 µM (inactive); with SK-MEL-2, > 100 µM (inactive); in the experiment on SNB-19, 51.3 µM (inactive); with U-251 it was > 100 µM (inactive); with UO-31 it was > 100 µM (inactive).

Turning to `CC1=CC(=O)/C(=C/n2c(=S)[nH]c3ccccc32)C(=O)O1`, the GI50 was > 100 µM (inactive) in the experiment on 786-0; > 100 µM (inactive) in the experiment with A498; > 100 µM (inactive) in the experiment on A549; > 100 µM (inactive) in the experiment on BT-549; 58.9 µM (inactive) in the experiment on CCRF-CEM; > 100 µM (inactive) with DU-145. For the same molecule, the GI50 was 72.8 µM (inactive) in the experiment on Hs-578T; > 100 µM (inactive) in the experiment on MDA-MB-231; > 100 µM (inactive) with MDA-N; > 100 µM (inactive) in the experiment on NCI-H23; > 100 µM (inactive) in the experiment with NCI-H460; > 100 µM (inactive) with RPMI-8226. In addition, the GI50 with SF-268, with SF-295, in the experiment with SK-MEL-2, in the experiment on SNB-19, in the experiment with U-251 and with UO-31 was > 100 µM (inactive) throughout.
